Assay results taken from ChEMBL document CHEMBL1201862, “PubChem BioAssay data set” (2004).
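Growth conditions: 96-well plates. Treatment: test compound, 48 hours, 5 concentrations. Analysis: linear interpolation between bracketing concentrations; unreached endpoints set to highest concentration. GI50 = concentration required for 50% inhibition of growth.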 The source made the active and inactive calls. Rule as the data show it: active = GI50 up to about 1.1 µM and inactive = higher.

Experiments:
Assay in all cases: inhibition of tumour cell growth, NCI panel, 48 h
SNB-75 = test system: SNB-75
MCF7 = test system: MCF7
IGROV-1 = test system: IGROV-1
NCI-H460 = test system: NCI-H460
DU-145 = test system: DU-145
SF-295 = test system: SF-295
MDA-N = test system: MDA-N
UO-31 = test system: UO-31
SNB-19 = test system: SNB-19
OVCAR-4 = test system: OVCAR-4
HCT-116 = test system: HCT-116
TK-10 = test system: TK-10
SW-620 = test system: SW-620
SF-268 = test system: SF-268
SK-MEL-28 = test system: SK-MEL-28
U-251 = test system: U-251
HCC 2998 = test system: HCC 2998
CAKI-1 = test system: CAKI-1
Malme-3M = test system: Malme-3M
ACHN = test system: ACHN

Row | SMILES | GI50 (SNB-75) | GI50 (MCF7) | GI50 (IGROV-1) | GI50 (NCI-H460) | GI50 (DU-145) | GI50 (SF-295) | GI50 (MDA-N) | GI50 (UO-31) | GI50 (SNB-19) | GI50 (OVCAR-4) | GI50 (HCT-116) | GI50 (TK-10) | GI50 (SW-620) | GI50 (SF-268) | GI50 (SK-MEL-28) | GI50 (U-251) | GI50 (HCC 2998) | GI50 (CAKI-1) | GI50 (Malme-3M) | GI50 (ACHN)
1 | CC(=O)NC(C)(C)C1CC=C(C)/C(=N\O)C1 (configuration not stated) | > 100 µM (inactive) | > 100 µM (inactive) | > 100 µM (inactive) | > 100 µM (inactive) | > 100 µM (inactive) | > 100 µM (inactive) | > 100 µM (inactive) | > 100 µM (inactive) | > 100 µM (inactive) | > 100 µM (inactive) | > 100 µM (inactive) | > 100 µM (inactive) | > 100 µM (inactive) | > 100 µM (inactive) | > 100 µM (inactive) | > 100 µM (inactive) | > 100 µM (inactive) | – | – | –
2 | CCOC(=O)C1(C(=O)OCC)C=C(c2ccccc2)N(C2OC(COC(C)=O)C(OC(C)=O)C(OC(C)=O)C2OC(C)=O)C1=S (configuration not stated) | – | 44.7 µM (inactive) | > 100 µM (inactive) | > 100 µM (inactive) | > 100 µM (inactive) | > 100 µM (inactive) | > 100 µM (inactive) | 61.5 µM (inactive) | > 100 µM (inactive) | 51.6 µM (inactive) | > 100 µM (inactive) | – | > 100 µM (inactive) | > 100 µM (inactive) | > 100 µM (inactive) | > 100 µM (inactive) | > 100 µM (inactive) | > 100 µM (inactive) | > 100 µM (inactive) | –
3 | CC1=C(C(=O)NNC(=O)C[N+](C)(C)C)CC(C(=O)NNC(=O)C[N+](C)(C)C)=C(C)N1 | – | > 100 µM (inactive) | > 100 µM (inactive) | > 100 µM (inactive) | > 100 µM (inactive) | > 100 µM (inactive) | > 100 µM (inactive) | 68.4 µM (inactive) | > 100 µM (inactive) | > 100 µM (inactive) | > 100 µM (inactive) | > 100 µM (inactive) | > 100 µM (inactive) | > 100 µM (inactive) | – | > 100 µM (inactive) | > 100 µM (inactive) | > 100 µM (inactive) | – | > 100 µM (inactive)
4 | C=C(C)COc1cc(/N=C(/S)OC(C)C)ccc1Cl | 15.2 µM (inactive) | 15.4 µM (inactive) | 16.6 µM (inactive) | 15.4 µM (inactive) | 16.7 µM (inactive) | 15.5 µM (inactive) | 16.7 µM (inactive) | 13.5 µM (inactive) | 18.8 µM (inactive) | 14.5 µM (inactive) | 15.2 µM (inactive) | 15.2 µM (inactive) | 13.7 µM (inactive) | 19.5 µM (inactive) | 17.3 µM (inactive) | 16.9 µM (inactive) | 15.5 µM (inactive) | 15.3 µM (inactive) | – | 17.1 µM (inactive)
5 | COC(=O)C1CCC(=O)N1C(c1ccc(OC)cc1)c1cc(OC)c(OC)c(OC)c1 (configuration not stated) | 0.389 µM (active) | 0.307 µM (active) | 0.274 µM (active) | 0.33 µM (active) | 0.306 µM (active) | 0.0762 µM (active) | 0.104 µM (active) | 1.19 µM (inactive) | 0.531 µM (active) | – | 0.324 µM (active) | > 37.8 µM (inactive) | 0.384 µM (active) | 0.625 µM (active) | > 100 µM (inactive) | 0.364 µM (active) | 0.249 µM (active) | 0.313 µM (active) | – | 0.52 µM (active)
6 | c1cc(NNc2cccc(-c3nnn[nH]3)c2)cc(-c2nnn[nH]2)c1 | > 100 µM (inactive) | > 100 µM (inactive) | > 100 µM (inactive) | > 100 µM (inactive) | > 100 µM (inactive) | > 100 µM (inactive) | > 100 µM (inactive) | > 100 µM (inactive) | > 100 µM (inactive) | > 100 µM (inactive) | > 100 µM (inactive) | > 100 µM (inactive) | > 100 µM (inactive) | > 100 µM (inactive) | > 100 µM (inactive) | > 100 µM (inactive) | – | > 100 µM (inactive) | > 100 µM (inactive) | > 100 µM (inactive)
